Experimental data from patent US12410171B2, “Tropomyosin receptor kinase (TRK) degradation compounds and methods of use” (Cullgen (Shanghai), Inc., priority 2020, dated 2025).
pIC50: −log10 of the molar value. Like-named read-outs stand apart in the source and are kept apart here.

Tests used:
KM12 cells = assay: KM12 cell viability (CellTiter-Glo); type: cell-based; conditions: Homo sapiens
Summary of the method: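 KM12 cells seeded at 5000 per well in RPMI 1640 + 10% FBS and exposed 3 days to serial dilutions (11-point 3-fold, 8-point 3-fold from 1000 nM, or 12-point 2-fold). Viability by CellTiter-Glo; IC50 from least-squares nonlinear regression.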

TPM3-TRKA fusion protein = target: T1, TPM3-TRKA fusion protein (Homo sapiens, UniProt P04629); assay: TPM3-TRKA fusion protein levels in KM12 cells (Western blot); type: cell-based; conditions: read-out: Degradation (at 10 nM)
T1 construct: The resulted chimeric proteins always retain the kinase domain of TRK proteins; TPM3 (fusion partner, N-terminal part of tropomyosin alpha-3, P06753); endogenous in cells; host or cells: KM12 colon cancer cells; the other entry of the earlier key: TPM3 (P06753, Tropomyosin alpha-3 chain)
T1 sequence (P04629 with tags, fused parts or gaps): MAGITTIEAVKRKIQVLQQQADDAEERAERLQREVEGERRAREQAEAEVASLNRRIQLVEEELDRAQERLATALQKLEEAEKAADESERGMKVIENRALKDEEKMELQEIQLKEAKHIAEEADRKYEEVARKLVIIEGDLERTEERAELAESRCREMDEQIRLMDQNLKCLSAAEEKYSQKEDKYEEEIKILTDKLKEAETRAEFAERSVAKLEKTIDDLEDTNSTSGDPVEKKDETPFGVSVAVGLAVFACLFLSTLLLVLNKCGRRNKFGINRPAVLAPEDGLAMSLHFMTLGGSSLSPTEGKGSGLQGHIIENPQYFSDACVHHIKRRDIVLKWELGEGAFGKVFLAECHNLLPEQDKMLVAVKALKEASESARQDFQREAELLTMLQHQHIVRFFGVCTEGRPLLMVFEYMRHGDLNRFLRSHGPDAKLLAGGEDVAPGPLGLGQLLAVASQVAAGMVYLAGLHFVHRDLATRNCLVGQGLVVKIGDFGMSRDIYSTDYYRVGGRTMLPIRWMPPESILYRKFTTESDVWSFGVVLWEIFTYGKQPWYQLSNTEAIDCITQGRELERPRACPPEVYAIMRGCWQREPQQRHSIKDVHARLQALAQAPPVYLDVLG
Summary of the method: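 KM12 colon cancer cells were treated with DMSO or compounds at 0.1–100 nM, 0.4–30 nM or other stated concentrations for 4, 8–16 or 16 h. RIPA lysates were BCA-normalized and resolved by SDS-PAGE. TPM3-TRKA was detected by chemiluminescent Western blot, with bands quantified by densitometry.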

[1] = 72 h, KM12 cell viability, CellTiter-Glo, three days treatment, read-out: IC50
[2] = 16 h, TPM3-TRKA degradation in KM12 cells at 10 nM compound, category of percentage degradation

SMILES	pIC50 (KM12 cells; [1])	percent degradation of TPM3-TRKA protein at 0.01 µM (TPM3-TRKA fusion protein; [2]) [%]	pIC50 (KM12 cells; KM12, 72 h)	percent degradation of TPM3-TRKA protein at 0.01 µM (TPM3-TRKA fusion protein; KM12, 16 h) [%]
O=C1CCC(N2Cc3cc(C#CCN4CCN(c5ccc(C(=O)Nc6n[nH]c7ccc(Cc8cc(F)cc(F)c8)cc67)cc5)CC4)ccc3C2=O)C(=O)N1 (stereo not drawn) [TR-256, N—(S-(3,5-Difluorobenzyl)-1H-indazol-3-yl)-4-(4-(3-(2-(2,6-dioxopiperidin-3-yl)-1-oxoisoindolin-5-yl)prop-2-yn-1-yl)piperazin-1˜yl)benzamide]	7.33	50 to 80		
Cn1c(=O)n(C2CCC(=O)NC2=O)c2cccc(N3CC(CN4CCN(c5cccc(-c6cnc7ccc(N8CCC[C@@H]8c8cccc(F)c8)nn67)n5)CC4)C3)c21 (stereo partly drawn) [TR-258, 3-(4-(3-((4-(6-(6-((R)-2-(3-fluorophenyl)pyrrolidin-1-yl)imidazo[1,2-b]pyridazin-3-yl)pyridin-2-yl)piperazin-1-yl)methyl)azetidin-1-yl)-3-methyl-2-oxo-2,3-dihydro-1H-benzo[d]imidazol-1-yl)piperidine-2,6-dione]	7.98	> 80		
Cn1c(=O)n(C2CCC(=O)NC2=O)c2ccc(CCCCN3CCN(c4cccc(-c5cnc6ccc(N7CCC[C@@H]7c7cccc(F)c7)nn56)n4)CC3)cc21 (stereo partly drawn) [TR-259, 3-(5-(4-(4-(6-(6-((R)-2-(3-fluorophenyl)pyrrolidin-1-yl)imidazo[1,2-b]pyridazin-3-yl)pyridin-2-yl)piperazin-1-yl)butyl)-3-methyl-2-oxo-2,3-dihydro-1H-benzo[d]imidazol-1-yl)piperidine-2,6-dione]	8.28	> 80		
Cn1c(=O)n(C2CCC(=O)NC2=O)c2ccc(C#CCCN3CCN(c4cccc(-c5cnc6ccc(N7CCC[C@@H]7c7cccc(F)c7)nn56)n4)CC3)cc21 (stereo partly drawn) [TR-260, 3-(5-(4-(4-(6-(6-((R)-2-(3-fluorophenyl)pyrrolidin-1-yl)imidazo[1,2-b]pyridazin-3-yl)pyridin-2-yl)piperazin-1-yl)but-1-yn-1-yl)-3-methyl-2-oxo-2,3-dihydro-1H-benzo[d]imidazol-1-yl)piperidine-2,6-dione]	7.58	> 80		
O=C1CCC(N2C(=O)c3ccc(CN4CC(N5CCN(c6ccc(C(=O)Nc7n[nH]c8ccc(Cc9cc(F)cc(F)c9)cc78)cc6)CC5)C4)cc3C2=O)C(=O)N1 (centres unmarked) [TR-261, N-(5-(3,5-Difluorobenzyl)-1H-indazol-3-yl)-4-(4-(1-((2-(2,6-dioxopiperidin-3-yl)-1,3-dioxoisoindolin-S-yl)methyl)azetidin-3-yl)piperazin-1-yl)benzamide]			6.44	50 to 80
O=C1CCC(N2C(=O)c3ccc(CN4CC(CN5CCN(c6ccc(C(=O)Nc7n[nH]c8ccc(Cc9cc(F)cc(F)c9)cc78)cc6)CC5)C4)cc3C2=O)C(=O)N1 (centres unmarked) [TR-262, N-(5-(3,5-Difluorobenzyl)-1H-indazol-3-yl)-4-(4-((1-((2-(2,6-dioxopiperidin-3-yl)-1,3-dioxoisoindolin-5-yl)methyl)azetidin-3-yl)methyl)piperazin-1-yl)benzamide]	7.09	> 80		
O=C1CCC(N2C(=O)c3ccc(NCCN4CCN(c5ccc(C(=O)Nc6n[nH]c7ccc(Cc8cc(F)cc(F)c8)cc67)cc5)CC4)cc3C2=O)C(=O)N1 (centres unmarked) [TR-263, N-(5-(3,5-difluorobenzyl)-1H-indazol-3-yl)-4-(4-(2-((2-(2,6-dioxopiperidin-3-yl)-1,3-dioxoisoindolin-5-yl)amino)ethyl)piperazin-1-yl)benzamide]	7.72	50 to 80		
O=C1CCC(N2C(=O)c3ccc(NCC(=O)N4CCN(c5ccc(C(=O)Nc6n[nH]c7ccc(Cc8cc(F)cc(F)c8)cc67)cc5)CC4)cc3C2=O)C(=O)N1 (centres unmarked) [TR-264, N-(5-(3,5-difluorobenzyl)-1H-indazol-3-yl)-4-(4-((2˜ (2,6-dioxopiperidin-3-yl)-1,3-dioxoisoindolin-5-yl)glycyl)piperazin-1-yl)benzamide]	8.00	> 80		
O=C1CCC(N2C(=O)c3ccc(N4CC(CN5CCN(c6ccc(C(=O)Nc7n[nH]c8ccc(Cc9cc(F)cc(F)c9)cc78)cc6)CC5)C4)cc3C2=O)C(=O)N1 (centres unmarked) [TR-265, N-(5˜ (3,5-difluorobenzyl)-1H-indazol-3-yl)-4-(4-((1-(2-(2,6-dioxopiperidin-3-yl)-1,3-dioxoisoindolin-5-yl)azetidin-3-yl)methyl)piperazin-1-yl)benzamide]	7.88	> 80		
O=C1CCC(N2C(=O)c3ccc(NCC(=O)N4CCN(c5ccc(C(=O)Nc6n[nH]c7ccc(Cc8cc(F)cc(F)c8)cc67)c(NCCF)c5)CC4)cc3C2=O)C(=O)N1 (centres unmarked) [TR-266, N-(5-(3,5-difluorobenzyl)-1H-indazol-3-yl)-4-(4˜ ((2-(2,6-dioxopiperidin-3-yl)-1,3-dioxoisoindolin-5-yl)glycyl)piperazin-1-yl)-2-((2-fluoroethyl)amino)benzamide]	8.14	> 80		
O=C1CCC(N2C(=O)c3ccc(N4CC(CN5CCN(c6ccc(C(=O)Nc7n[nH]c8ccc(Cc9cc(F)cc(F)c9)cc78)c(NCCF)c6)CC5)C4)cc3C2=O)C(=O)N1 (centres unmarked) [TR-267, N-(5-(3,5-difluorobenzyl)-1H-indazol-3-yl)-4-(4-((1-(2-(2,6-dioxopiperidin-3-yl)-1,3-dioxoisoindolin-5-yl)azetidin-3-yl)methyl)piperazin-1-yl)-2-((2-fluoroethyl)amino)benzamide]	7.93	> 80		
O=C1CCC(N2C(=O)c3ccc(NCCN4CCN(c5ccc(C(=O)Nc6n[nH]c7ccc(Cc8cc(F)cc(F)c8)cc67)c(NCCF)c5)CC4)cc3C2=O)C(=O)N1 (centres unmarked) [TR-268, N-(5-(3,5-Difluorobenzyl)-1H-indazol-3-yl)-4-(4-(2-((2-(2,6-dioxopiperidin-3-yl)-1,3-dioxoisoindolin-5-yl)amino)ethyl)piperazin-1-yl)-2-((2-fluoroethyl)amino)benzamide]	8.21	> 80		
O=C1CCC(N2C(=O)c3ccc(N4CCN(c5ccc(C(=O)Nc6n[nH]c7ccc(Cc8cc(F)cc(F)c8)cc67)c(NC6CCOCC6)c5)CC4)cc3C2=O)C(=O)N1 (centres unmarked) [TR-269, N-(5-(3,5-Difluorobenzyl)-1H-indazol-3-yl)-4-(4-(2-(2,6-dioxopiperidin-3-yl)-1,3-dioxoisoindolin-5-yl)piperazin-1-yl)-2-((tetrahydro-2H-pyran-4-yl)amino)benzamide]	7.35	< 50		
O=C1CCC(N2C(=O)c3ccc(N4CCC(CN5CCN(c6ccc(C(=O)Nc7n[nH]c8ccc(Cc9cc(F)cc(F)c9)cc78)c(NC7CCOCC7)c6)CC5)C4)cc3C2=O)C(=O)N1 (centres unmarked) [TR-270, N-(5-(3,5-difluorobenzyl)-1H-indazol-3-yl)-4-(4-((1-(2-(2,6-dioxopiperidin-3-yl)-1,3-dioxoisoindolin-5-yl)pyrrolidin-3-yl)methyl)piperazin-1-yl)-2-((tetrahydro-2H-pyran-4-yl)amino)benzamide]	7.99	> 80		
O=C1CCC(N2C(=O)c3ccc(N4CCC(CN5CCN(c6ccc(C(=O)Nc7n[nH]c8ccc(Cc9cc(F)cc(F)c9)cc78)c(NC7CCOCC7)c6)CC5)CC4)cc3C2=O)C(=O)N1 (centres unmarked) [TR-271, N-(5-(3,5-Difluorobenzyl)-1H-indazol-3-yl)-4-(4-((1-(2-(2,6-dioxopiperidin-3-yl)-1,3-dioxoisoindolin-5-yl)piperidin-4-yl)methyl)piperazin-1-yl)-2-((tetrahydro-2H-pyran-4-yl)amino)benzamide]	7.66	> 80		
O=C1CCC(N2C(=O)c3ccc(N4CCCC(CN5CCN(c6ccc(C(=O)Nc7n[nH]c8ccc(Cc9cc(F)cc(F)c9)cc78)c(NC7CCOCC7)c6)CC5)C4)cc3C2=O)C(=O)N1 (centres unmarked) [TR-272]	7.70	50 to 80		
O=C1CCC(N2C(=O)c3ccc(NC(=O)CN4CCN(c5ccc(C(=O)Nc6n[nH]c7ccc(Cc8cc(F)cc(F)c8)cc67)c(NC6CCOCC6)c5)CC4)cc3C2=O)C(=O)N1 (centres unmarked) [TR-273, N-(5-(3,5-Difluorobenzyl)-1H-indazol-3-yl)-4-(4-(2-((2-(2,6-dioxopiperidin-3-yl)-1,3-dioxoisoindolin-5-yl)amino)-2-oxoethyl)piperazin-1-yl)-2-((tetrahydro-2H-pyran-4-yl)amino)benzamide]	7.39	> 80		
O=C1CCC(N2C(=O)c3ccc(CCCN4CCN(c5ccc(C(=O)Nc6n[nH]c7ccc(Cc8cc(F)cc(F)c8)cc67)c(NC6CCOCC6)c5)CC4)cc3C2=O)C(=O)N1 (centres unmarked) [TR-276, N-(5-(3,5-difluorobenzyl)-1H-indazol-3-yl)-4-(4-(3-(2˜ (2,6-dioxopiperidin-3-yl)-1,3-dioxoisoindolin-5-yl)propyl)piperazin-1-yl)-2-((tetrahydro-2H-pyran-4-yl)amino)benzamide]	8.00	> 80		
O=C1CCC(N2C(=O)c3ccc(N4CCCC(N5CCN(c6ccc(C(=O)Nc7n[nH]c8ccc(Cc9cc(F)cc(F)c9)cc78)c(NC7CCOCC7)c6)CC5)C4)cc3C2=O)C(=O)N1 (centres unmarked) [TR-278, N-(5-(3,5-Difluorobenzyl)-1H-indazol-3-yl)-4-(4-(1-(2-(2,6-dioxopiperidin-3-yl)-1,3-dioxoisoindolin-5-yl)piperidin-3-yl)piperazin-1-yl)-2-((tetrahydro-2/-pyran-4-yl)amino)benzamide]	7.46	50 to 80		
